From patent US20190105409A9, “IMAGING AGENTS WITH IMPROVED PHARMACOKINETIC PROFILES” (GE HEALTHCARE AS, priority 2004, published 2019)

Test: Biodistribution of radiolabelled compounds in a Lewis Lung mouse Carcinoma model
Type: in vivo
Conditions: for % ID/g kidney / % ID/g liver: tail vein injection of radiolabelled compound, excretion profile monitored at 5, 30, 60 and 120 minutes (time point not given)
Method: Biodistribution studies were carried out in a Lewis Lung mouse Carcinoma model as described in Bae et al, Drugs Exp Clin Res, 2003; 29 (1): 15-23. Following tail vein injection of the compounds, e the excretion profile was monitored at 5, 30, 60 and 120 minutes.

| Structure (SMILES) | % ID/g kidney [% ID/g] | % ID/g liver [% ID/g] | excretion route / biodistribution in comparison to compounds 2 and 3 (tail vein injection, conclusion from Table 1) |
| --- | --- | --- | --- |
| O=C(CCN(C1(C(=O)NO)CCCC1)S(=O)(=O)c1ccc(Oc2ccc(F)cc2)cc1)NCCc1ccc(O)c(I)c1 [Compound 2] | 7 | 71 | – |
| NC(=O)C(Cc1ccc(O)c(I)c1)NC(=O)CCOCCOCCOCCOCCOCCOCCOCCOCCOCCOCCOCCOCCNC(=O)CCOCCOCCOCCOCCOCCOCCOCCOCCOCCOCCOCCOCCNC(=O)CCN(C1(C(=O)NO)CCCC1)S(=O)(=O)c1ccc(Oc2ccc(F)cc2)cc1 (stereo not shown) [Compound 4] | 70 | 20 | preferably excreted via the renal system |
| NC(=O)C(Cc1ccc(O)c(I)c1)NC(=O)OC(=O)NCCOCCOCCOCCNC(=O)CCN(C1(C(=O)NO)CCCC1)S(=O)(=O)c1ccc(Oc2ccc(F)cc2)cc1 (stereo not shown) [Compound 3] | 20 | 61 | – |
